The conditions of data set [1]: cited from earlier work.
Another data set has as its system porcine dermatomed skin. Kind of data set: Skin penetration of rhodamine 123 (fluorescence and confocal microscopy). The data set is classed as in vitro ADME. Particulars: 10 μg rhodamine 123 equivalent, 6 hours, cryosections. The procedure:
For stratum corneum (SC) 0-20 μm and for epidermis 20-100 μm XZ optical sections from confocal microscopic images were used for quantifying the fluorescence pixels. The nanoparticles were prepared using the method described in Table 8-1.
Later the skin was sectioned with cryotome and observed under a fluorescent microscope.

The subject of a further data set is skin. The note with it: Cornwell and Barry 1993; cited from earlier work.
For data set [2] the following is noted: in words; cited from earlier work.

For orientation: Log P means a log measure of how a compound divides between an organic and an aqueous phase.

For `COC(=O)c1ccccc1-c1c2ccc(=N)cc-2oc2cc(N)ccc12.Cl` [Rhodamine 123], the “Log P” value in data set [1] is listed as 1.2. Also, in the data set on porcine dermatomed skin, the penetration into skin entry is recorded as “restricted to the top layer of skin (SC)”.
With `O=c1[nH]cc(F)c(=O)[nH]1` [5-Fluorouracil (5-FU), 5-Fluorouracil], the skin permeability result in the data set on skin is given as “poorly permeable through skin”. For the same compound, the solubility in water result in data set [2] is listed as “partially soluble in cold water”.
